Our source for the IC50 values is PMC6276509, “Evaluation of Tyrosinase Inhibitory, Antioxidant, Antimicrobial, and Antiaging Activities of Magnolia officinalis Extracts after Aspergillus niger Fermentation” (BioMed Research International, 2018).

Converted amounts (≈) assume the structure as drawn.

The target of the assay is T1, Mushroom tyrosinase.
T1 construct: gene PPO3; commercial native mushroom tyrosinase (Sigma), isoenzyme mixture
Briefly: absorbance at […] nm, […] min. The assay is classed as biochemical. As to conditions: L-tyrosine substrate (1 mL of 100 mg/L); sodium phosphate buffer; DMSO stock; alpha or beta anomer not stated.

In general, IC50 refers to the concentration that inhibits the measured activity by half. Lower therefore signals greater potency in that assay.

In the case of `OC[C@H]1O[C@@H](Oc2ccc(O)cc2)[C@H](O)[C@@H](O)[C@@H]1O` [arbutin], the 50% inhibitory concentration (IC50) came out at 56 ± 12 µg/mL (≈ 206 µM).
